The source of these data is patent US11993640B2, “Treating inflammatory lung disease” (United States Government as represented by the Department …, priority 2019, dated 2024).

Non-standard residues stand in square brackets, D forms with d. Residues, ends and D or L forms follow the SMILES beside them. *: point of attachment. Phe(F5) = N[C@@H](Cc1c(F)c(F)c(F)c(F)c1F)C(=O)O; hArg = N=C(N)NCCCC[C@H](N)C(=O)O; 12Ado = NCCCCCCCCCCCC(=O)O; Nle = CCCC[C@H](N)C(=O)O; Orn = NCCC[C@H](N)C(=O)O; Abu = CC[C@H](N)C(=O)O; PhAc = O=C(Cc1ccccc1)*

Experiment [1] concerns C57Bl/6J mice treated with bleomycin. Briefly: Bleomycin lung injury model, lung histopathology scores (inflammation, modified Ashcroft fibrosis). The experiment is classed as in vivo, mouse. How it is done:
Experimental animals. 8-week old C57Bl/6J male mice (The Jackson Laboratory, Bar Harbor, ME) were used in these experiments. Mice weighed about 26 grams at the start. Mice were randomly allocated to the experimental groups and housed in identical filter top cages in a ventilated rack. Mice were exposed to a 12-hour light/dark cycle and had free access to standard laboratory chow and water.
(§1) Bleomycin and GHRH-R antagonist treatment. Mice were treated with 0.8 units of bleomycin (Bleomycin for Injection USP, Hospira, Lake Forest, IL) intraperitoneally (IP) on days 1, 3, 7, 10, 14 and 21 (Collins S, Chan-Li Y, Oh M, Vigeland C, Limjunyawong N, Mitzner W, Powell J D, Horton M R (2016). JCI Insight 1(4):1-13). Mice (randomly assigned) were simultaneously treated subcutaneously (sc) with MIA-602 (5 μg/day) or its vehicle (100 μL/day). MIA-602 was dissolved in DMSO (ACS grade; Sigma-Aldrich) and diluted 1:500 in normal saline for daily sc injection on days 0-21.
Tissue preparations. Mice were killed by CO2 inhalation before any treatment, or on days 14 or 28 for micro-CT scans of lungs and harvesting of lung tissue (Vande Velde G, Poelmans J, De Langhe E, Hillen A, Vanoirbeek J, Himmelreich U, Lories R (2016). Dis Model Mech 9:91). The right mainstem bronchus was ligated and the right lung removed and frozen at −80° C. for hydroxyproline (HP) assays. The left lung was filled with 10% buffered formalin at ˜25 cm H2O pressure, the bronchus ligated, and the lung fixed in formalin. Fixed lungs were embedded in wax and 5 μm sections stained with hematoxylin and eosin (H&E) or Masson's trichrome stain.
Lung histopathology. Fibrosis was quantified in trichrome-stained sections using a modification of the Ashcroft score that describes grades of fibrosis. Inflammation in lung tissue was quantified in H&E stained sections (Hubner R, Gitter W, El Mokhtari N, Mathiak M, Both M, Bolte H, Freitag-Wolf S, Bewig B (2008). Biotechniques 44:507-517).
Data analysis. Data are reported as arithmetic means±SEM or SD as indicated. […]

For experiment [2] the test system is unchanged. The experiment is described as follows: RNAseq and pathway analysis of lung tissue of bleomycin-treated mice. The experiment is classed as in vivo, mouse. The settings on record: bleomycin 28 days, MIA-602 versus vehicle. The protocol: as §1
RNA isolation. RNA was extracted from fixed lung tissue in paraffin blocks using a Quick-RNA™ FFPE Kit (R1008, Zymo Research, Irvine, CA) following the manufacturer's protocol (Patel P, Selvarajah S, Guerard K, Bartlett J, Lapointe J, Berman D, Okello J, Park P (2017). PLoS ONE 12:e0179732). […]
RNAseq and Pathway analyses. […] Cluster generation and sequencing was done on the Illumina cBOT and HiSeq 3000 using reagents provided by Illumina, finally generating >32 million single-end 100 base reads per sample. […]
Gene counts were normalized using trimmed mean of M-values (TMM) method. Differential expression between groups was calculated with the exact test implemented in edgeR (Robinson M, McCarthy D, Smyth G (2010). Bioinformatics 26:139-140). […]

[3] abbreviates: day 28, bleomycin-treated mice, MIA-602 5 μg/day sc days 1-21.

On to `CCCC[C@H](NC(=O)[C@@H](NC(=O)[C@H](CC(=O)O)NC(=O)[C@H](CCC(N)=O)NC(=O)[C@H](CC(C)C)NC(=O)[C@H](CC(C)C)NC(=O)[C@H](CCCN)NC(=O)[C@H](Cc1c[nH]cn1)NC(=O)[C@H](C)NC(=O)[C@H](CO)NC(=O)[C@H](CC(C)C)NC(=O)[C@H](CCC(N)=O)NC(=O)[C@H](CC)NC(=O)[C@H](CC(C)C)NC(=O)[C@@H](NC(=O)[C@H](CCCN)NC(=O)[C@H](Cc1c[nH]cn1)NC(=O)[C@H](Cc1ccc(OC)cc1)NC(=O)[C@H](CCCCNC(=N)N)NC(=O)[C@H](C)NC(=O)[C@@H](NC(=O)[C@H](Cc1c(F)c(F)c(F)c(F)c1F)NC(=O)[C@@H](NC(=O)[C@H](C)NC(=O)[C@H](CC(=O)O)NC(=O)[C@@H](CCCNC(=N)N)NC(=O)[C@H](Cc1ccc(O)cc1)NC(=O)CCCCCCCCCCCNC(=O)Cc1ccccc1)[C@@H](C)CC)[C@@H](C)O)C(C)C)[C@@H](C)CC)C(=O)N[C@H](CCCNC(=N)N)C(=O)N[C@@H](CCCCNC(=N)N)C(N)=O` [MIA-602, PhAC-Ada, Tyr D-Arg, Asp, Ala, Ile, 5FPhe, Thr, Ala, Har, Tyr(Me), His, Orn, Val, Leu, Abu, Gin, Leu, Ser, Ala, His, Orn, Leu, Leu, Gin, Asp, Ile, Nle, D-Arg, Har NH2, reference compound] ({PhAc-12Ado}-Y[dR]DAI[Phe(F5)]TA[hArg]Y(Me)H[Orn]VL[Abu]QLSAH[Orn]LLQDI[Nle][dR][hArg]-NH2), for which, in experiment [1] (bleomycin-treated mice, days 14 and 28), the “Lung inflammatory changes and fibrosis, histopathology” value was “Both inflammatory changes and fibrosis were decreased”. In addition, in experiment [1] (setting [3]), the “Lung fibrosis histopathologic score, 5%-95% CI” value is given as 1.1-2.9 and the “Lung fibrosis histopathologic score, range” value is reported as 1.0-3.0. For the same compound, in experiment [2], the “Lung gene expression, RNA-seq pathway analysis” value was “suppression of the adaptive immune response, T cell differentiation and activation and cytokine production”.
